Key:
[1] = uptake of carbon monoxide; assay type: binding
From the text: Accordingly, the invention further provides a method for removing carbon monoxide from a liquid or vapour containing carbon monoxide by contacting the liquid or vapour with cucurbit[5]uril.

[2] = binding of dioxane in aqueous solutions
From the text: This dioxane binding properly can form the basis of processes for the removal of dioxane. According to a further aspect of the present invention, the present invention provides a process for removing dioxane from a fluid comprising contacting the fluid with cucurbit[6]uril and/or cucurbit[7]uril.

[3] = solubility in acid and salt solutions; assay type: physicochemical; conditions: 0.1M Na2SO4 solution
From the text: All of the cucurbit[n]urils that have been observed are apparently soluble in acid solutions. Cucurbit[5 or 7 or 8 or 10]uril have been purified by successive recrystallisations from acid solutions. Because of the similar nature of the cucurbiturils, this is a slow process with more than 10 recrystallisations required to purify cucurbit[7]uril. As shown in the German patents cucurbit[6]uril can be obtained in a relatively pure state from a single recystallisation process.
The present invention provides a method for producing a range of cucurbit[n]urils and cucurbit[s,u]urils. The synthesis method results in the production of a number of cucurbit[n]urils and cucurbit[s,u]urils that have never before been produced or isolated. Separation is possible via chromatography and/or selective precipitation. The product cucurbit[n]urils and cucurbit[s,u]urils are stable to vigorous reaction conditions over a wide range of pH values. They are soluble in aqueous acid or aqueous salt solutions. The method gives cucurbiturils in much larger yields than previously possible. The use of templating compounds allows a degree of control over the relative amounts of the different cucurbit[n]urils being produced.

binding of dioxane [2] | Compound | uptake of carbon monoxide [1] | dissolution in salt solution out of a mixture containing cucurbit[5-8]urils [3]
– | O=C1N2CN3C(=O)N4CN5C(=O)N6CN7C(=O)N8CN9C(=O)N%10CN1C1C2N2CN%11C(=O)N(CN%12C(=O)N(CN%13C(=O)N(CN%14C(=O)N(CN1C2=O)C%10C9%14)C8C7%13)C6C5%12)C4C3%11 (centres unmarked) [cucurbit[5]uril] | has shown uptake of carbon monoxide | –
bind dioxane | O=C1N2CN3C(=O)N4CN5C(=O)N6CN7C(=O)N8CN9C(=O)N%10CN%11C(=O)N%12CN1C1C2N2CN%13C(=O)N(CN%14C(=O)N(CN%15C(=O)N(CN%16C(=O)N(CN%17C(=O)N(CN1C2=O)C%12C%11%17)C%10C9%16)C8C7%15)C6C5%14)C4C3%13 (centres unmarked) [cucurbit[6]uril] | – | dissolving cucurbit[6 or 7]uril out of the complex mixture
bind dioxane | cucurbit[7]uril | – | dissolving cucurbit[6 or 7]uril out of the complex mixture
